These results are taken from patent publication US20130116282A1, “BUCKWHEAT EXTRACT ENRICHED IN D-FAGOMINE” (BIOGLANE, S.L.N.E., priority 2010, published 2013).

The structures appear in SMILES notation.

Assay [1] concerns Streptozotocin-diabetic mice. The conditions noted are these: Nojima et al. 1998; cited from earlier work.
A further assay deals with Sprague-Dawley rats. In words: Post-prandial blood glucose test after sucrose administration. Type of assay: in vivo, rat. The conditions noted are these: sucrose 2 g/kg, 1.0 mg/kg D-fagomine. The protocol: The effect on postprandial blood glucose of both D-fagomine enriched extract from buckwheat and D-fagomine obtained chemoenzimatically following the procedure described in WO2008025826A1 was evaluated. Adult male Sprague-Dawley rats of 200-220 g body weight (Janvier, Le Genest-St-Isle, France) were housed in cages (n=2/cage) under controlled conditions of stable humidity (40-77%), and temperature (23° C.) with a 12-hour light/dark cycle. The rats were fed a standard diet (Panlab A04, Panlab, Barcelona, Spain) and given water ad libitum. To minimize circadian rhythm effects, rat manipulations were carried out in the morning. Handling and sacrificing of the animals were in full accordance with the European Union guidelines for the care and management of laboratory animals and the pertinent permission was obtained from the CSIC Subcommittee of Bioethical Issues. The authors further attest that all efforts were made to minimize the number of animals used and their suffering. The glucose test was performed after a 12 h food deprivation period. A solution of sucrose (2 g/kg body weight) together with the appropriate amount of the compound being tested was administered to the rats. […] Blood glucose concentration was measured by the enzyme electrode method using Elite blood glucose test strips and a blood glucose meter Ascensia ELITE XL both from Bayer Consumer Care AG (Basel, Switzerland). […]

In a further assay the test system is alpha-glycosidase. The conditions noted are these: Kato et al. 1997; cited from earlier work.
In the next assay the test system is Escherichia coli. Kind of assay: Adhesion of Escherichia coli to mucus (pig intestinal mucosa). The format is cell-based. The settings on record: 10 mg/L D-fagomine. The protocol: Adhesion to Mucus. Protocol
The strains of Escherichia coli used were obtained from the Bacterial Strain Collection of the Faculty of Veterinary Science at the Universitat Autònoma de Barcelona. Overnight, cultures of the bacterial strain were inoculated into flasks containing Luria medium (Liofilchem, Roseto degli Abruzzi, Italy) (3 mL) to facilitate the production of fimbriae. The strains were incubated at 37° C. for 24 h. Then, colonies were grown on Luria medium Agar plates and after 24 h of incubation, several dilutions were prepared in PBS (phosphate buffered saline, Sigma Aldrich, St Louis, Mo., USA) for each strain, down to a concentration of 1×10^7 CFU mL^−1.
The mucosa was obtained from intestinal segments of pigs, just after they were killed at a local slaughterhouse, and kept frozen until use. The mucosa preparation (1 mL) was defrosted, centrifuged and mixed with PBS (99 mL). Prior to each test, the concentration of mucine in the suspension was calculated by the Bradford method. Multiwell plates (Nunc®, Roskilde, Denmark) were treated with the mucosa suspension (2.5 mL) overnight at 4° C. […] Finally, the colony forming units from both the supernatant and mucosa were counted under an optical microscope after cultivating both fractions overnight.

The next assay has as its system lactase. The settings on record: Kato et al. 1997; cited from earlier work.

Take `OC[C@H]1NCC[C@@H](O)[C@@H]1O` [D-fagomine WO2008025826A1, (2R,3R,4R)-2-(hydroxymethyl)piperidine-3,4-diol]: the antihyperglycemic effect entry in assay [1] was “antihyperglycemic effect”. In the assay on Sprague-Dawley rats, the “Increase in plasma glucose after sucrose administration” value is “lowered”. The alpha-glycosidase inhibition entry with alpha-glycosidase is “weak inhibitor”. Moreover, in the assay with Escherichia coli, the “Agglutination of the microorganisms” value is “agglutinated” and the “Bacterial adhesion to the mucus” value is listed as “not detected”. For the same compound, in the assay on lactase, the lactase inhibition entry is listed as “weak inhibitor”.
